Assay results as given in ChEMBL document CHEMBL1148263, “Solid-phase synthesis of kojic acid-tripeptides and their tyrosinase inhibitory activity, storage stability, and toxicity” (Bioorg Med Chem Lett, 2004).

Key:
Type in all cases: functional, Mus musculus
[1] = Cytotoxicity of compound against Melan-a cells determined as percent cell survival at 10 ppm
[2] = Cytotoxicity of compound against Melan-a cells determined as percent cell survival at 100 ppm
[3] = Cytotoxicity of compound against Melan-a cells determined as percent cell survival at 1 ppm

SMILES	Cell survival [1]	Cell survival [2]	Cell survival [3]
NCCCC[C@H](NC(=O)OCc1cc(=O)c(O)co1)C(=O)N[C@@H](CCC(=O)O)C(=O)N[C@@H](Cc1ccc(O)cc1)C(=O)O	98.78%	100.81%	98.38%
O=C(N[C@@H](Cc1ccccc1)C(=O)N[C@@H](Cc1ccc(O)cc1)C(=O)N[C@@H](Cc1ccc(O)cc1)C(=O)O)OCc1cc(=O)c(O)co1	128.62%	124.4%	124.4%
O=C(N[C@@H](Cc1ccccc1)C(=O)N[C@@H](Cc1ccccc1)C(=O)N[C@@H](Cc1ccc(O)cc1)C(=O)O)OCc1cc(=O)c(O)co1	94.66%	104.36%	91.62%
O=C(N[C@@H](Cc1ccccc1)C(=O)N[C@@H](Cc1c[nH]c2ccccc12)C(=O)N[C@@H](Cc1ccc(O)cc1)C(=O)O)OCc1cc(=O)c(O)co1	128.73%	128.08%	125.51%
O=c1cc(CO)occ1O [KOJIC ACID]	92.36%	86.92%	91.75%
